# Assay results published in patent US6602487B1, “Methods and tests for producing and for inhibiting coronary artery vasospasms” (Dimera Incorporated, priority 1997, dated 2003).
# Where “and” joins values, the source holds several entries; their conditions need not be identical. Equal entries are not always repeated. Entries after “also recorded” stand apart in the source; their conditions may differ. Where two headings read alike, the source gives them in different places.
# Tests used:
# coronary arteries [1] = conditions: for EC50: read-out: estimated ET1 EC50, responsive ovx monkeys; for coronary vasospasm on IC injection (no mechanical injury): serotonin 6.7 or 200 μmol/liter alone, U46619 6.7 to 2,000 nmol/liter alone, AII up to 200 nmol/liter, combination 6.7 μmol/liter serotonin and 67 nmol/liter U46619, triple combination with ET1
# coronary arteries [2] = experiment: Mechanical injury coronary vasospasm protocol (Protocol 2); type: in vivo, rhesus monkeys (Macaca mulatta); conditions: for Spasms/N: number of animals with vasospasm / number of animals; for ED50 (-log mol/liter): syringe concentration of the named vasoconstrictor causing 50% reduction of diameter from control, combined stimuli with 100 μmol/liter serotonin
# Text: A separate mechanical injury, Protocol 2, was used in three additional monkeys (one male, two ovx). The injury step of Protocol 2, was deliberate mechanical stretching of the LAD or left main coronary artery with a 5F catheter.
# In Protocol 2, steps 1-5 were the same as in Protocol 1. The remaining steps were as follows:
# 7. IC injection of angiotensin II (sequential doses to 10 μmol/liter);
# 8. Injury by stretching the coronary artery with a 5F catheter;
# 9. IC injection of serotonin (sequential doses to 1 mmol/liter);
# 10. IC injection 15 minutes later with 1 or 10 μmol/liter nitrendipine or Ro 40-5967 (mibefradil);
# 11. IC injection of […] (sequential doses to 10 μmol/liter); and
# 12. IC injection 15 minutes later with 1 or 10 μmol/liter nitrendipine or Ro 40-5967.
# Putative coronary vasospasm stimuli were judged primarily by actions on large coronary artery diameters, analyzed as diameter of the most proximal focus of vasospasm at end-diastole from video-taped images recorded at 30 frames/s. We used the image analysis program Image Pro to measure the diameters from single frames acquired with an Imagraph frame grabber in a Pentium computer. We used the 3F catheter tip radio-opaque marker ring (1.0 mm) for calibration and determined minimal and maximal diameters just distal to the constriction. All responses to interventions were also X-ray imaged immediately (15 to 30 s after injection) and at exactly 3 minutes (and 15 minutes if there was vasospasm) after injection.
# coronary arteries [3] = experiment: Drug-induced (S+U) coronary vasospasm in ovariectomized monkeys with E2 plus P or MPA implants; type: in vivo, rhesus monkeys (Macaca mulatta)
# Procedure: Twelve rhesus monkeys (Macaca mulatta), aged 8 to 16 years and with weights of 5-7 kg, were ovariectomized at least 3 months prior to beginning of the study and selected randomly for one of two treatments. After documenting the lack of cardiovascular disease or previous exposure to atherogenic diet and after a normal physical examination (including blood chemistry), monkeys received subdermal sylastic implants containing 200 mg of E2. Two weeks later, sylastic implants containing either 400 mg of P or 400 mg of MPA were additionally implanted. All steroids were purchased from Steraloids (Wilton, N.H.). Both estrogen and progestin implants, providing sustained release steroids, remained in place through the catheterization study 6 weeks after beginning the study. Venous blood sample (5 ml) were collected just prior to beginning the study at weekly intervals for measurements of serum levels of E2, P, and MPA. Target levels of 80-160 pg/ml for E2, 4000-8000 pg/ml for P, and 400-800 pg/ml for MPA were based on levels that are effective by reproductive system indices in women and monkeys. Levels were measured in blood serum at catheterization by specific radio-immunoassays.
# Angiography was carried out under isoflurane (0.75-1.25%) general anesthesia with 70% O2 and 30% N2O, and body temperature supported with a heating pad. After ketamine sedation (10 mg/kg) and endotracheal tube placement, both femoral arteries were cannulated for simultaneous measurement of systemic blood pressure and coronary catheterization. Intravenous anticoagulation with 1000 units of heparin and fluid replacement with 75-150 ml of lactated Ringer's solution, and if needed 10-50 ml of dextran, to reach a minimum control diastolic blood pressure of 60 mm Hg.
# Coronary arteries (left anterior descending or left circumflex) of the monkeys were catheterized and agents injected as described above in Example 1.
# Statistical analysis was carried out by Student's t-test (non-paired) or Chi-square, with the p<0.05 level accepted as significant.
# All monkeys were treated with estradiol 17β via sylastic implants for the entire treatment period. P or MPA was added during the last 2 weeks as a second sylastic implant, to simulate the luteal phase (P) or hormone replacement therapy (MPA). All steroid implants were left in place, including during angiography. Steroid measurements were made by RIA on serum samples taken just before angiography. Indicates significant differences between P and MPA at p 0.05 (N=6 for each group).
# [4] = test system: coronary artery vascular muscle cells (VMC); experiment: Subcellular Ca2+ and PKC localization and contraction of coronary VMC stimulated with serotonin plus U46619; type: cell-based, rhesus monkeys
# Text: Single VMCs from the left anterior descending, circumflex, and right coronary arteries of adult rhesus monkeys were isolated and studied both as freshly dispersed and as primary cultures. The short-term primary cultured cells (never passaged) maintain the characteristics of the source tissue for 2 3 weeks, including contraction, relaxation, receptors, and membrane electrical properties. VMCs were dissociated with collagenase and protease enzymes in a potassium glutamate solution (KG) that prevent loading with Na^+, Ca^2+, or Cl^− and results in a high proportion of viable, contracting cells (Self, D. A., et al., J. Vasc. Res. 31:359-366 (1994); Rusch., N. J., et al., Physiology and Pathophysiology of the Heart, 999-1010 (1995)). The cells prepared for culture were seeded at low density in cardiovascular culture solution for mammals, fifth generation (CV5M) on glass coverslips to facilitate selection of individual cells. VMC were used for experiments 7-14 days after attaching to coverslips.
# Freshly dispersed or primary cultured VMCs on glass coverslips were placed in a chamber of laminar flow design and observed with a Zeiss Plan Neofluar 25×/0.80 water immersion objective. Ionic solution for mammals version 2 (ISM2) was continuously pumped through the chamber (at 1 ml/minute) to provide continuous equilibration and washout of drugs. After a 15 minutes equilibration period, VMC were loaded for 15 minutes at room temperature with 3 μM fluo 3 (Molecular Probes, Inc.) for sensing Ca^2− and for 10 minutes with […] hypericin (LC Laboratories) for reporting PKC. Individual VMC were stimulated by adding 20 μl of 10 μM serotonin plus 100 nM U46619 over the individual cell. After 15 seconds under no-flow conditions, continuous flow of ISM2 was reinstated and a chamber volume of approximately 300 μl was maintained. Fluorescent images were taken at 1, 2, 5, 10, 15, 20 and 30 minutes after stimulation for Ca^2+ and at 3, 4, 9, 16, 21 and 31 minutes for PKC to evaluate subcellular distribution of these signals, and to determine VMC contraction.
# ISM2 contains (in mM): 100 NaCl, 4 NaHCO3, 0.5 NaH2PO4, 4.7 KCl, 1.8 CaCl2, 0.41 […], 50 HEPES (pH 7.37), and 5.5 dextrose, KG solution consists of (in mM); 140 K-glutamate, 16 NaHCO3, 0.5 NaH2PO4, 30 HEPES, and 16.5 dextrose at pH 7.3. CVSM consists of. 4.0 mM L-glutamine, 10 μg/ml ciprofloxacin (Miles Pentex/Bayer Corporation), 50 mM HEPES (pH 7.3), and 16 mM NaHCO3 dissolved in 85% MEM-Earle's'salts and 15% horse serum. Phenol red, known to have estrogenic activity, was omitted from all solutions.
# As discussed above, the monkeys were implanted with subdermal sylastic tubing containing estrogen (E) progesterone (P) or MPA. The first step in each of the three groups was to implant sylastic tubing containing E. Two weeks later, either P or MPA were additionally implanted and maintained for another 4 weeks (6 weeks total). In the withdrawal (W) group, the E tube was withdrawn, and no tubes were implanted for the last 4 weeks.
# [5] = angiographic example, one MPA monkey
# [6] = minimum, 5-20 minutes after IC S + U
molecule,measurement,setting,value
"CC(=O)OCC[N+](C)(C)C [ACh, acetylcholine]",time to vasodilation,"coronary arteries [1]; 67 nmol/liter ACh IC, all monkeys",≤ 15 s
CC[C@H](C)[C@H](NC(=O)[C@H](CC(=O)O)NC(=O)[C@H](CC(C)C)NC(=O)[C@H](Cc1c[nH]cn1)NC(=O)[C@@H]1CSSC[C@H](N)C(=O)N[C@@H](CO)C(=O)N[C@H]2CSSC[C@H](NC(=O)[C@H](CCC(=O)O)NC(=O)[C@H](CCCCN)NC(=O)[C@H](CC(=O)O)NC(=O)[C@H](CCSC)NC(=O)[C@H](CC(C)C)NC(=O)[C@H](CO)NC(=O)[C@H](CO)NC2=O)C(=O)N[C@@H](C(C)C)C(=O)N[C@@H](Cc2ccc(O)cc2)C(=O)N[C@@H](Cc2ccccc2)C(=O)N1)C(=O)N[C@H](C(=O)N[C@@H](Cc1c[nH]c2ccccc12)C(=O)O)[C@@H](C)CC [Endothelin 1],Spasms/N,coronary arteries [2]; Protocol 2,0/3
same,ED50 (-log mol/liter),coronary arteries [2]; Protocol 2,8.5 -log mol/liter
same,EC50,coronary arteries [1]; with 6.7 μmol/liter serotonin,67 pM
same,EC50,coronary arteries [1]; without serotonin,200 pM
"CC(=O)O[C@]1(C(C)=O)CC[C@H]2[C@@H]3C[C@H](C)C4=CC(=O)CC[C@]4(C)[C@H]3CC[C@@]21C [MPA, medroxyprogesterone acetate]",diameter in dilator response to low dose ACh,coronary arteries [3]; 0.18 μg ACh IC,1.21±0.19 mm
same,number of S+U challenges responded to with vasospasm (mean),coronary arteries [3]; E2+MPA treated monkeys,2.7±0.7
same,number of S+U challenges responded to with vasospasm (range),coronary arteries [3]; E2+MPA treated monkeys,1-5
same,Vasospasms (incidence),"coronary arteries [3]; S+U IC challenges, E2 implant plus P or MPA implant, N=6 per group",6 of 6 and 6/6*
same,reduction of minimum (φ) from controls after S+U,coronary arteries [3]; S+U stimulation,87%
same,constriction after IC S+U,coronary arteries [3]; [5],92%
same,time constriction was sustained,coronary arteries [3]; [5],15 min
same,blood pressure nadir,"coronary arteries [3]; angiographic example, one MPA monkey after S+U",38/20
same,Control DBP in mm Hg,coronary arteries [3]; before S + U,61 ± 5 mm Hg
same,Control Heart rate in bpm,coronary arteries [3]; before S + U,134 ± 26 bpm
same,S + U (φ) minimum,coronary arteries [3]; minimum diameter 3 to 5 minutes after IC S + U,0.15±0.04 mm
same,S + U stim DBP in min Hg,coronary arteries [3]; [6],26 ± 8 min Hg
same,S + U stim SBP in mm Hg,coronary arteries [3]; [6],45 ± 11 mm Hg
same,S + U stim heart rate in bpm,coronary arteries [3]; [6],69 ± 24 bpm
same,Control (φ) in mm,"coronary arteries [3]; proximal LAD or left circumflex diameter under control conditions, E2+P or E2+MPA group",1.15±0.10 mm
same,whole cell Ca2+ (fluo 3) fluorescence after stimulation,"[4]; VMC from treated monkeys, 10 μM serotonin plus 100 nM U46619, FIG. 3",significantly increased over control averaged over the whole cell at 1 minute and every subsequent time point
same,peripheral-to-central Ca2+ ratio after stimulation,"[4]; VMC from treated monkeys, 10 μM serotonin plus 100 nM U46619, FIG. 4",significantly decreased peripheral-to-central Ca^2+ ratio at 10 minutes and all subsequent times
same,PKC signal after stimulation,"[4]; VMC from treated monkeys, 10 μM serotonin plus 100 nM U46619, FIG. 5",significantly above the 0-min control at 3 minutes and all subsequent time points
same,peripheral-to-central PKC ratio after stimulation,"[4]; VMC from treated monkeys, 10 μM serotonin plus 100 nM U46619, FIG. 6",decreased significantly
same,VMC contractions (cell width) after stimulation,"[4]; VMC from treated monkeys, 10 μM serotonin plus 100 nM U46619, FIG. 7",significantly different from 0-min controls at 3 minutes and all subsequent times
same,duration of activation by serotonin and U46619,"[4]; based on comparisons of contractions, protocol limit 30 minutes",> 30 min
CCCCC[C@H](O)/C=C/[C@@H]1[C@@H](C/C=C\CCCC(=O)O)[C@H]2CO[C@@H]1C2 [U46619],coronary vasospasm with mechanical injury (5F catheter stretch),"coronary arteries [2]; serotonin 67 μmol/liter IC, U46619 67 nmol/liter or 1 nmol/liter, ET1 ≦10 nmol/liter, AII ≦10 μmol/liter",caused another vasospasm; also recorded: Vasospasm was stimulated
same,EC50 (-log mol/liter),"coronary arteries [1]; Protocol 1, estimated actual coronary artery blood concentration based on 15-fold dilution",6.8 -log mol/liter
same,Spasms/N,"coronary arteries [1]; Protocol 1, number of animals with vasospasm / number of animals",0/8
same,ED50 (-log mol/liter),"coronary arteries [1]; Protocol 1, syringe concentration of the named vasoconstrictor causing 50% reduction of diameter from control, combined stimuli with 100 μmol/liter serotonin",5.5 -log mol/liter
same,vasoactivity / constriction of arteries on IC injection of single agent,"coronary arteries [1]; serotonin 67 nmol/liter to 667 μmol/liter, U46619 6.7 to 2,000 nmol/liter",caused constriction of arteries in all 10 monkeys
same,coronary vasospasm on IC injection (no mechanical injury),coronary arteries [1],vasospasm could not be found
"Angiotensin II: vasoconstrictor angiotensin-II (DRVYIHPF; Angiotensin-2; UniProt P01019 25-32, looked up)",EC50 (-log mol/liter),"coronary arteries [2]; Protocol 2, estimated actual coronary artery blood concentration based on 15-fold dilution",6.8 -log mol/liter
same,Spasms/N,coronary arteries [2]; Protocol 2,0/3
same,ED50 (-log mol/liter),coronary arteries [2]; Protocol 2,5.5 -log mol/liter
same,systemic blood pressure,coronary arteries [1]; Angiotensin II up to 200 nmol/liter IC,did increase systemic blood pressure
same,coronary vasospasm on IC injection (no mechanical injury),coronary arteries [1],did not cause vasospasm
